How the values were obtained:
purified TAP-HOG1 = target: T1, purified TAP-HOG1 (Arabidopsis thaliana, UniProt O23255); experiment: biochemical; assay type: binding; settings: ITC, ligand injected into purified TAP-HOG1; KD = 1/KA; read-out: KD (dissociation constant)
T1 construct: Protein A (ProtA part of the TAP tag, TEV site between ProtA and CBP) (N, cleaved yes); made in house; host or cells: transgenic Arabidopsis thaliana harbouring 35S:TAP-HOG1
Experimental: Cytokinin binding affinity and thermodynamic analysis of the interaction between HOG1 and cytokinins was examined by ITC (MCSITC, Microcal, Northampton, USA). Three naturally occurring cytokinins (zeatin, benzyladenine and isopentenyl adenine) and thidiazuron (an urea-derived synthetic cytokinin) were used. Additionally, adenosine and NAD were used as control molecules to verify the binding specificity of HOG1 to cytokinins. Data were analyzed by MICROCAL ORIGIN version 2.9 using the best-fit, nonlinear least-squares method for one binding site. The binding stoichiometry (n), and association constant (KA) were calculated from the fitted curves. Subsequently, KD was calculated as 1/KA. Raw heat data were corrected to baseline drift obtained from injections of 0.1 μM purified AHP1 into the sample cell containing 2 μM purified TAP-HOG1. Binding isotherms were created by plotting the heat peak areas against the molar ratio of AHP1 added to HOG1.
Cytokinin binding affinity and thermodynamic analysis of the interaction between HOG1 and cytokinins was examined by ITC (MCSITC, Microcal, Northampton, USA). TAP-HOG1 fusion protein was purified using published protocols (Forler et al. supra) from transgenic Arabidopsis plants harboring the 35S:TAP-HOG1 construct. 0.01 μM benzyladenine (a naturally occurring cytokinin) and 0.1 μM of purified TAP-HOG1 protein were used for each ITC assay with 25 injections (each injection of 2 μl at […] intervals at 37° C.). Data were analyzed with MICROCAL ORIGIN version 2.9 using the best-fit, nonlinear least-squares method for one binding site. The binding stoichiometry (n), and association constant (KA) were calculated from the fitted curves. Subsequently, KD was calculated as 1/KA.

ARR1 and ARR2 = experiment: qRT-PCR of type-B ARRs after BA treatment; assay type: cell-based, Arabidopsis thaliana; settings: transgenic lines
Experimental: For quantitative real-time PCR (qRT-PCR) analysis of cytokinin-inducible gene expression, seeds were germinated on MS medium with 3% (w/v) sucrose and grown for 6 days. Cytokinin treatment was carried out by incubating seedlings in the same MS+sucrose liquid medium (no agar) supplemented with 0, 0.01, 0.1, 1 or 5 μM [solubilized in 0.1% dimethylsulfoxide (DMSO) and diluted with the MS medium] for 5 min, 15 min, 30 min or 1 h. The control seedlings were incubated with DMSO (0.1%, the concentration used to dissolve cytokinins for the treatment) for the corresponding durations and used for expression analysis. Before RNA preparation, WT, OE and AS seedlings were pooled and stored in RNAlater solution (Qiagen, Valencia, Calif.). Total RNA was extracted using the Rneasy Plant Mini Kit (Qiagen). SYBRgreen RT-PCR reagents (Applied Biosystems) were used to synthesize double-stranded cDNA. The number of transcripts present in biological replicates each of WT, OE and AS seedlings, with or without BA and DMSO, was determined from three independent replicates. Fold induction of the transcripts was calculated according to the manufacturer's instructions (ABI Prism 7700 Sequence Detection System, User Bulletin #2).

T1 sequence (O23255 other isoform, or with tags, fused parts or gaps with the stated changes): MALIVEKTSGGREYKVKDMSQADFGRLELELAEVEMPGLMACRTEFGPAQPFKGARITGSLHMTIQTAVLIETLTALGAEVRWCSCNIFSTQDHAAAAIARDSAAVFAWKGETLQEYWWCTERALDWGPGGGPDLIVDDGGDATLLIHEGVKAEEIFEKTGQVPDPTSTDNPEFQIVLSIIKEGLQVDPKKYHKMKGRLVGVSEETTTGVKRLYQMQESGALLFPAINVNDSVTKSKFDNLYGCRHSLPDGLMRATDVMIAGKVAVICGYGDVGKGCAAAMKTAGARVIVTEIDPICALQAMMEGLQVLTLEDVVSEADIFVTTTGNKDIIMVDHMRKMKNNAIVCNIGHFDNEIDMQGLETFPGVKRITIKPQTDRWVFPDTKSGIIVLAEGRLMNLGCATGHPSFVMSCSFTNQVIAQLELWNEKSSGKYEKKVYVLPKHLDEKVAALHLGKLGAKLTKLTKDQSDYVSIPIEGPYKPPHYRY

c1ccc(CNc2ncnc3nc[nH]c23)cc1 [benzyladenine]
Kd (purified TAP-HOG1): 20.6 nM
ARR1 and ARR2 transcript levels (ARR1 and ARR2): not significantly affected
